Measured values taken from patent publication US12077503B2, “Substituted cyclic amides and their use as herbicides” (FMC CORPORATION, priority 2015, dated 2024).

Columns and labels:
Type in all cases: in vivo
[1] = tested on: sedge, umbrella (small-flower umbrella sedge, Cyperus difformis); assay: Test B flooded paddy test; settings: Cyperus difformis, 250 g ai/ha, Flood; 0 to 100 scale where 0 is no effect and 100 is complete control; read-out: Sedge, Umbrella plant response rating
How it was run: (§1)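 Rating scale 0–100 (visual, vs untreated controls) after a 13–15 d greenhouse period; application to the flood layer, 3 cm above soil and maintained; plants at 2-leaf stage when treated.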

[2] = tested on: ducksalad (Heteranthera limosa); assay: Test B flooded paddy test; settings: Heteranthera limosa, 250 g ai/ha, Flood; 0 to 100 scale where 0 is no effect and 100 is complete control; read-out: Ducksalad plant response rating
How it was run: as §1

[3] = tested on: barnyardgrass (Echinochloa crus-galli); assay: Test B flooded paddy test; settings: Echinochloa crus-galli, 250 g ai/ha, Flood; 0 to 100 scale where 0 is no effect and 100 is complete control; read-out: Barnyardgrass plant response rating
How it was run: as §1

rice (Oryra sativa) = assay: Test B flooded paddy test; settings: Oryza sativa, 250 g ai/ha, Flood; 0 to 100 scale where 0 is no effect and 100 is complete control; read-out: Rice plant response rating
How it was run: as §1

[4] = tested on: ragweed (common ragweed, Ambrosia elatior); assay: Test A preemergence; settings: Ambrosia artemisiifolia, pre-emergence, 240 h, 0 to 100 scale where 0 is no effect and 100 is complete control, read-out: Ragweed plant response rating; for pest or weed control at 31 g/ha: 31 g ai/ha, Preemergence; for pest or weed control at 125 g/ha: 125 g ai/ha, preemergence, approx. 10 d
How it was run: (§2)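 Ratings of 0 (no effect) to 100 (complete control) come from visual comparison with untreated controls roughly 10 d after treatment. Test chemicals, formulated in a non-phytotoxic solvent mixture with surfactant, were applied either as a preemergence directed soil spray on seeded soil or postemergence to one- to two-leaf plants 2 to 10 cm tall.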

[5] = tested on: giant foxtail (Setaria faberii); assay: Test A preemergence; settings: Setaria faberi, pre-emergence, 240 h, 0 to 100 scale where 0 is no effect and 100 is complete control, read-out: Foxtail, Giant plant response rating; for pest or weed control at 31 g/ha: 31 g ai/ha, Preemergence; for pest or weed control at 125 g/ha: 125 g ai/ha, preemergence, approx. 10 d
How it was run: as §2

Kochia (Kochia scoparia) [6] = assay: Test A preemergence; settings: Bassia scoparia, pre-emergence, 240 h, 0 to 100 scale where 0 is no effect and 100 is complete control, read-out: Kochia plant response rating; for pest or weed control at 31 g/ha: 31 g ai/ha, Preemergence; for pest or weed control at 125 g/ha: 125 g ai/ha, preemergence, approx. 10 d
How it was run: as §2

[7] = tested on: pigweed (Amaranthus retroflexus); assay: Test A preemergence; settings: Amaranthus retroflexus, pre-emergence, 240 h, 0 to 100 scale where 0 is no effect and 100 is complete control, read-out: Pigweed plant response rating; for pest or weed control at 31 g/ha: 31 g ai/ha, Preemergence; for pest or weed control at 125 g/ha: 125 g ai/ha, preemergence, approx. 10 d
[8] = tested on: barnyardgrass (Echinochloa crus-galli); assay: Test A preemergence; settings: Echinochloa crus-galli, pre-emergence, 240 h, 0 to 100 scale where 0 is no effect and 100 is complete control, read-out: Barnyardgrass plant response rating; for pest or weed control at 31 g/ha: 31 g ai/ha, Preemergence; for pest or weed control at 125 g/ha: 125 g ai/ha, preemergence, approx. 10 d
How it was run: as §2

[9] = tested on: ryegrass, Italian (Italian ryegrass, Lolium multiflorum); assay: Test A preemergence; settings: Lolium multiflorum, pre-emergence, 240 h, 0 to 100 scale where 0 is no effect and 100 is complete control, read-out: Ryegrass, Italian plant response rating; for pest or weed control at 31 g/ha: 31 g ai/ha, Preemergence; for pest or weed control at 125 g/ha: 125 g ai/ha, preemergence, approx. 10 d
How it was run: as §2

[10] = tested on: ragweed (common ragweed, Ambrosia elatior); assay: Test A postemergence; settings: Ambrosia artemisiifolia, post-emergence, 240 h; for pest or weed control at 125 g/ha: 125 g ai/ha, postemergence, visual injury vs untreated controls after approx. 10 d, 0 = no effect, 100 = complete control, read-out: Ragweed plant response rating (0 to 100 scale); for pest or weed control at 31 g/ha: Postemergence, 31 g ai/ha, visual injury after approx. 10 d, 0 to 100 scale, 0 no effect, 100 complete control, read-out: Plant response rating, Ragweed
How it was run: as §2

[11] = tested on: giant foxtail (Setaria faberii); assay: Test A postemergence; settings: Setaria faberi, post-emergence, 240 h; for pest or weed control at 125 g/ha: 125 g ai/ha, postemergence, visual injury on 0 to 100 scale (0 no effect, 100 complete control), approx. 10 d, read-out: Foxtail, Giant plant response rating; for pest or weed control at 31 g/ha: Postemergence, 31 g ai/ha, visual injury after approx. 10 d, 0 to 100 scale, 0 no effect, 100 complete control, read-out: Plant response rating, Foxtail, Giant
How it was run: as §2

[12] = tested on: blackgrass (Alopecurus myosuroides); assay: Test A postemergence; settings: Alopecurus myosuroides, post-emergence, 240 h; for pest or weed control at 125 g/ha: 125 g ai/ha, postemergence, visual injury on 0 to 100 scale (0 no effect, 100 complete control), approx. 10 d, read-out: Blackgrass plant response rating; for pest or weed control at 31 g/ha: Postemergence, 31 g ai/ha, visual injury after approx. 10 d, 0 to 100 scale, 0 no effect, 100 complete control, read-out: Plant response rating, Blackgrass
How it was run: as §2

[13] = tested on: Galium (catchweed bedstraw, Galium aparine); assay: Test A postemergence; settings: Galium, post-emergence, 240 h; for pest or weed control at 125 g/ha: 125 g ai/ha, postemergence, visual injury on 0 to 100 scale (0 no effect, 100 complete control), approx. 10 d, read-out: Galium plant response rating; for pest or weed control at 31 g/ha: Postemergence, 31 g ai/ha, visual injury after approx. 10 d, 0 to 100 scale, 0 no effect, 100 complete control, read-out: Plant response rating, Galium
How it was run: as §2

corn (Zea mays) = assay: Test A postemergence; settings: Zea mays, post-emergence, 240 h; for plant injury at 125 g/ha: 125 g ai/ha, postemergence, visual injury on 0 to 100 scale (0 no effect, 100 complete control), approx. 10 d, read-out: Corn plant response rating; for Corn plant response rating (crop injury, 0 = no effect, 100 = complete kill) at 31 g/ha: Postemergence, 31 g ai/ha, visual injury after approx. 10 d, 0 to 100 scale, 100 complete control
How it was run: as §2

Kochia (Kochia scoparia) [14] = assay: Test A postemergence; settings: Bassia scoparia, post-emergence, 240 h; for pest or weed control at 125 g/ha: 125 g ai/ha, postemergence, visual injury on 0 to 100 scale (0 no effect, 100 complete control), approx. 10 d, read-out: Kochia plant response rating; for pest or weed control at 31 g/ha: Postemergence, 31 g ai/ha, visual injury after approx. 10 d, 0 to 100 scale, 0 no effect, 100 complete control, read-out: Plant response rating, Kochia
How it was run: as §2

[15] = tested on: wheat (Triticum aestivum); assay: Test A postemergence; settings: Triticum aestivum, post-emergence, 240 h; for plant injury at 125 g/ha: 125 g ai/ha, postemergence, visual injury vs untreated controls after approx. 10 d, 0 = no effect, 100 = complete control, read-out: Wheat plant response rating (0 to 100 scale); for plant injury at 31 g/ha: Postemergence, 31 g ai/ha, visual injury after approx. 10 d, 0 to 100 scale, 0 no effect, 100 complete control, read-out: Plant response rating, Wheat
How it was run: as §2

[16] = tested on: pigweed (Amaranthus retroflexus); assay: Test A postemergence; settings: Amaranthus retroflexus, post-emergence, 240 h; for pest or weed control at 125 g/ha: 125 g ai/ha, postemergence, visual injury vs untreated controls after approx. 10 d, 0 = no effect, 100 = complete control, read-out: Pigweed plant response rating (0 to 100 scale); for pest or weed control at 31 g/ha: Postemergence, 31 g ai/ha, visual injury after approx. 10 d, 0 to 100 scale, 0 no effect, 100 complete control, read-out: Plant response rating, Pigweed
How it was run: as §2

[17] = tested on: barnyardgrass (Echinochloa crus-galli); assay: Test A postemergence; settings: Echinochloa crus-galli, post-emergence, 240 h; for pest or weed control at 125 g/ha: 125 g ai/ha, postemergence, visual injury on 0 to 100 scale (0 no effect, 100 complete control), approx. 10 d, read-out: Barnyardgrass plant response rating; for pest or weed control at 31 g/ha: Postemergence, 31 g ai/ha, visual injury after approx. 10 d, 0 to 100 scale, 0 no effect, 100 complete control, read-out: Plant response rating, Barnyardgrass
How it was run: as §2

[18] = tested on: ryegrass, Italian (Italian ryegrass, Lolium multiflorum); assay: Test A postemergence; settings: Lolium multiflorum, post-emergence, 240 h; for pest or weed control at 125 g/ha: 125 g ai/ha, postemergence, visual injury vs untreated controls after approx. 10 d, 0 = no effect, 100 = complete control, read-out: Ryegrass, Italian plant response rating (0 to 100 scale); for pest or weed control at 31 g/ha: Postemergence, 31 g ai/ha, visual injury after approx. 10 d, 0 to 100 scale, 0 no effect, 100 complete control, read-out: Plant response rating, Ryegrass, Italian
How it was run: as §2

SMILES	pest or weed control at 250 g/ha [1]	pest or weed control at 250 g/ha [2]	pest or weed control at 250 g/ha [3]	pest or weed control at 250 g/ha (rice (Oryra sativa))	pest or weed control at 31 g/ha [4]	pest or weed control at 125 g/ha [4]	pest or weed control at 31 g/ha [5]	pest or weed control at 125 g/ha [5]	pest or weed control at 31 g/ha (Kochia (Kochia scoparia) [6])	pest or weed control at 125 g/ha (Kochia (Kochia scoparia) [6])	pest or weed control at 31 g/ha [7]	pest or weed control at 125 g/ha [7]	pest or weed control at 31 g/ha [8]	pest or weed control at 125 g/ha [8]	pest or weed control at 31 g/ha [9]	pest or weed control at 125 g/ha [9]	pest or weed control at 125 g/ha [10]	pest or weed control at 31 g/ha [10]	pest or weed control at 125 g/ha [11]	pest or weed control at 31 g/ha [11]	further results
CN1C[C@H](c2ccc(F)c(Oc3ccccc3)c2)[C@@H](C(=O)Nc2ccccc2F)C1=O [Compound 1141]	0%	90%	50%	0%	0%	0%	80%	90%	0%	0%	30%	60%	30%	80%	0%	40%	30%	0%	90%	60%	pest or weed control at 125 g/ha [12]: 30%; pest or weed control at 31 g/ha [12]: 0%; pest or weed control at 125 g/ha [13]: 90%; pest or weed control at 31 g/ha [13]: 60%; plant injury at 125 g/ha (corn (Zea mays)): 20%; Corn plant response rating (crop injury, 0 = no effect, 100 = complete kill) at 31 g/ha (corn (Zea mays)): 0%; pest or weed control at 125 g/ha (Kochia (Kochia scoparia) [14]): 30%; pest or weed control at 31 g/ha (Kochia (Kochia scoparia) [14]): 0%; plant injury at 125 g/ha [15]: 20%; plant injury at 31 g/ha [15]: 0%; pest or weed control at 125 g/ha [16]: 50%; pest or weed control at 31 g/ha [16]: 30%; pest or weed control at 125 g/ha [17]: 90%; pest or weed control at 31 g/ha [17]: 60%; pest or weed control at 125 g/ha [18]: 50%; pest or weed control at 31 g/ha [18]: 20%
CN1CC(c2cccc(C(F)(F)F)c2)C(C(=O)Nc2ccccc2C(C)(C)O)C1=O (stereo not drawn) [Compound 1146]	50%	0%	45%	0%	0%	0%	20%	80%	0%	0%	0%	0%	50%	70%	0%	30%	0%	0%	20%	0%	pest or weed control at 125 g/ha [12]: 0%; pest or weed control at 31 g/ha [12]: 0%; pest or weed control at 125 g/ha [13]: 0%; pest or weed control at 31 g/ha [13]: 0%; plant injury at 125 g/ha (corn (Zea mays)): 30%; Corn plant response rating (crop injury, 0 = no effect, 100 = complete kill) at 31 g/ha (corn (Zea mays)): 0%; pest or weed control at 125 g/ha (Kochia (Kochia scoparia) [14]): 0%; pest or weed control at 31 g/ha (Kochia (Kochia scoparia) [14]): 0%; plant injury at 125 g/ha [15]: 0%; plant injury at 31 g/ha [15]: 0%; pest or weed control at 125 g/ha [16]: 0%; pest or weed control at 31 g/ha [16]: 0%; pest or weed control at 125 g/ha [17]: 40%; pest or weed control at 31 g/ha [17]: 0%; pest or weed control at 125 g/ha [18]: 0%; pest or weed control at 31 g/ha [18]: 0%
